In paper PMC6934184, “Selective DNA-PKcs inhibition extends the therapeutic index of localized radiotherapy and chemotherapy” (The Journal of Clinical Investigation, 2019) one finds inhibition data, which are given here for one molecule.

In the assay the target is T1, KIT D820E (Homo sapiens, UniProt P10721, D820E).
T1 construct: purchased Thermo Fisher Scientific (Life Technologies) SelectScreen
Briefly: SelectScreen LanthaScreen. The format is binding. Particulars: read-out: % displacement. In a few lines: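 SelectScreen broad panel; activity (Z'LYTE, Adapta) plus binding formats. ATP: Km app for CSF1R Z'LYTE; 10 for CAMK1 Adapta. Readout = % per kinase.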
For orientation: In TR-FRET formats the signal depends on donor and acceptor labels being close together.

T1 sequence (P10721 26-976 D820E): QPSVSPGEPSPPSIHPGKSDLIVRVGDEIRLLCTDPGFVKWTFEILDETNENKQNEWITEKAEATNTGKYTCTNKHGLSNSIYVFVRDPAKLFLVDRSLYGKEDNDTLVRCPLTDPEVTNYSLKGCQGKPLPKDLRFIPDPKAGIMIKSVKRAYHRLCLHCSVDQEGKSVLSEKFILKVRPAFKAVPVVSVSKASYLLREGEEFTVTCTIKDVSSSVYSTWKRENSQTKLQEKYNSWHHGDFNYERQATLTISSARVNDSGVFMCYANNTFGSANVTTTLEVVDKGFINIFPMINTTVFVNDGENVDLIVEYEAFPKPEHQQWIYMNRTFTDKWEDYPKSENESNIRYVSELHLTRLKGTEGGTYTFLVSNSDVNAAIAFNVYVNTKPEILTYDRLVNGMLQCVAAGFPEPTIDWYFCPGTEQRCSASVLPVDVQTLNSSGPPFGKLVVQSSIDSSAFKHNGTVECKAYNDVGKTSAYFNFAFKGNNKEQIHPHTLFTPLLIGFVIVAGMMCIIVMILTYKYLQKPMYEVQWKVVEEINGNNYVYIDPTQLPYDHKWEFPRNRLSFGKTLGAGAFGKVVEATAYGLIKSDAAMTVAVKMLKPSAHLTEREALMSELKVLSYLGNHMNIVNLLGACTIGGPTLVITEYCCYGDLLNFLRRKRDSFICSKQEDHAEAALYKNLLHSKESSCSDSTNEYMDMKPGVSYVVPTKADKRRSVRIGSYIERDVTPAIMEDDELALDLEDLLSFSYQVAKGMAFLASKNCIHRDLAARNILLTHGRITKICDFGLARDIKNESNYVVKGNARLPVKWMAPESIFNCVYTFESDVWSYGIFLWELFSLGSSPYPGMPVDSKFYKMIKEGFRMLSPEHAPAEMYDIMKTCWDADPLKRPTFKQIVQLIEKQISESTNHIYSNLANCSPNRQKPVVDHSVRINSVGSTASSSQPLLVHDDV

On to `CN(C(=O)CN1CCOCC1)c1ccc2sc3c(-c4cccc5c(=O)cc(N6CC7CCC(C6)O7)oc45)cccc3c2c1` [NU5455], for which the inhibition at 1 µM stood at 1.3%.
